Assay results from US10519177B2, “Heterocyclic compounds and uses thereof” (Plexxikon Inc., priority 2013, dated 2019).

Biological target: BRD4-BD1 (44-164) (Homo sapiens (Human), UniProt O60885)
Test: Alphascreen binding assay BRD4-BD1
Conditions: BRD4(1) H4; read-out: Biochemical activity (IC50 μM) BRD4(1) H4
Protocol: Binding of compounds of formula (I) with bromodomain 2, 3 4 was assessed using Alphascreen binding assay. The inhibition of the interaction between bromodomain and its acetylated target protein (Filippakopoulos P et al. 2012) was measured quantitatively using recombinant BRD proteins, an acetylated Histone 4 peptide and AlphaScreen™ technology. In absence of inhibition the BRD protein bound to AlphaScreen™ nickel chelate acceptor beads can interact with the acetylated Histone 4 peptide which is immobilized by the AlphaScreen™ Streptavidin coated beads. This interaction brings donor and acceptor beads in proximity. The close proximity allows the singlet oxygen produced by laser excitation of the donor beads to reach the acceptor beads and generate a luminescence signal.
Recombinant human bromodomains containing the N-terminal bromodomain (BRD2-BD1 (71-194), BRD3-BD1 (24-144) and BRD4-BD1 (44-164)) or dual bromodomains (BRD4-BD12 (1-477), BRD4-BD12 (1-472)) were prepared and purified as described in protein expression and purification session. The peptide is human Histone H41-21K5AcK8AcK12AcK16Ac-Biotin (Anaspec CA, USA).
Protocol for BRD2, BRD3 and BRD4 assay: All components are prepared in buffer composed of 50 mM HEPES pH 7.5, 100 mM NaCl, 0.01% bovine serum albumin (“BSA”), 0.01% Triton X-100, 2 mM dithiothreitol (“DTT”). 7 μL of Bromodomain protein and 7 μL of peptide are added to wells containing 1 μL of various concentrations of test compounds of formula (I) or DMSO vehicle in an Alphaplate (PerkinElmer GA, USA) and incubated for 1 hour at room temperature. 4 μL donor and acceptor bead mixture is then added with final concentrations of 7.5 μg/ml. 30 minutes after bead addition, Alpha signal is read on the Envision spectrometer (λEx 680 nm, λEm 520-620 nm). Final concentrations of bromodomain proteins and peptide are as shown below.
All data was normalized to the mean of 16 high and 16 low control wells on each plate. A four parameter curve fit of the following formula was then applied: Y=a+(b−a)/(1+(x/c)^d) Where ‘a’ is the minimum, ‘b’ is the maximum, ‘c’ is the pIC50 and ‘d’ is the Hill slope. Protein Expression and Purification
Recombinant human bromodomains containing the N-terminal bromodomain (BRD2-BD1 (71-194), BRD3-BD1 (24-144) and BRD4-BD1 (44-164)) or dual bromodomains (BRD4-BD12 (1-477), BRD4-BD12 (1-472)) were expressed in E. coli cells (in a modified pET vector) with an N-terminal six-His tag and purified using a combination of both IMAC (Ni-affinity) and size exclusion chromatography steps.
Recombinant BRD proteins were expressed using the E. coli strain BL21-CodonPlus (DE3) (Agilent Technologies CA, USA). Cells were grown in Terrific Broth (TB) media to an OD600 of 1.2 at 37° C. at which temperature was reduced to 25° C., protein was induced with 1.0 mM ispropyl-β-D-thiogalactopyranoside (“IPTG”) for 12-18 hours and harvested by centrifugation at 8000×g for 20 minutes. Cells were re-suspended in 0.1M K2PO4 pH 8.0, 250 mM NaCl, 10% Glycerol, 0.75% NP-40, 25 mM Imidazole, 5 mM beta-mercaptoethanol (“BME”) with 0.2 mg/ml Lysosyme, 2.0 mM phenylmethanesulfonyl fluoride (“PMSF”), 25 μg/ml DNAse I, incubated on ice for 30 minutes and lyzed with a cell disruptor (MicroFluidics MA, USA). The lysate was clarified by centrifugation at 20,000×g for 2 hours. The protein was captured with Ni-NTA resin (Life Technologies, USA). Contaminating proteins were washed off with 25 mM Tris-HCl pH 8.3, 250 mM NaCl, 12% Glycerol and 50 mM Imidazole. Following 3× wash steps, protein was eluted step wise using a 50 mM HEPES pH 7.5, 500 mM NaCl and 400 mM Imidazole. The protein was further purified using Gel Filtration column 26/600 Superdex 200 (GE Biosciences NJ, USA) in 50 mM HEPES pH 7.5, 250 mM NaCl. The protein was aliquoted and flash-frozen in liquid Nitrogen.

**Q.** With COc1ncc(F)cc1Cc1c[nH]c2ncc(-c3c(C)noc3C)cc12 [P-0028, 4-[3-[(5-fluoro-2-methoxy-3-pyridyl)methyl)-1H-pyrrolo[2,3-b]pyridin-5-yl]-3,5-dimethyl-isoxazole] as the compound, how does the IC50 read?
**A.** Its IC50 is less than 1 µM.

**Q.** Cc1noc(C)c1-c1cnc2c(-c3cnn(C4CCOC4)c3)cn(S(=O)(=O)c3ccccc3)c2c1 (stereo not drawn) [P-0148, 4-[1-(benzenesulfonyl)-3-(1-tetrahydrofuran-3-ylpyrazol-4-yl)pyrrolo[3,2-b]pyridin-6-yl]-3,5-dimethyl-isoxazole] was tested. Which IC50 did it give?
**A.** The IC50 was less than 1 µM.

**Q.** Which IC50 does the source give for CCc1[nH]c2ncc(-c3c(C)noc3C)cc2c1C(O)c1ccccc1Cl (stereo not drawn) [P-0042, (2-chlorophenyl)-[5-(3,5-dimethylisoxazol-4-yl)-2-ethyl-1H-pyrrolo[2,3-b]pyridin-3-yl]methanol] here?
**A.** Its IC50 is less than 1 µM.

**Q.** Cc1noc(C)c1-c1cnc2c(c1)c(CC1CCN(C(=O)C(F)(F)F)CC1)cn2C [P-0106, 1-[4-[[5-(3,5-dimethylisoxazol-4-yl)-1-methyl-pyrrolo[2,3-b]pyridin-3-yl]methyl]-1-piperidyl]-2,2,2-trifluoro-ethanone] was tested. Which IC50 did it give?
**A.** Its IC50 is less than 1 µM.

**Q.** For Cc1noc(C)c1-c1cnc2[nH]cc(Sc3ccccc3)c2c1 [P-0144, 3,5-dimethyl-4-(3-phenylsulfanyl-1H-pyrrolo[2,3-b]pyridin-5-yl)isoxazole], which IC50 is on record?
**A.** Its IC50 is less than 1 µM.

**Q.** With Cc1noc(C)c1-c1cnc2[nH]cc(C(O)c3ccccc3Cl)c2c1 (stereo not drawn) [P-0019, (2-chlorophenyl)-[5-(3,5-dimethylisoxazol-4-yl)-1H-pyrrolo[2,3-b]pyridin-3-yl]methanol] as the compound, how does the IC50 read?
**A.** The IC50 was less than 1 µM.

**Q.** Which IC50 does the source give for COC(c1c[nH]c2ncc(-c3c(C)noc3C)cc12)C1CCC(F)(F)CC1 (stereo not drawn) [P-0073, 4-[3-[(4,4-difluorocyclohexyl)-methoxy-methyl]-1H-pyrrolo[2,3-b]pyridin-5-yl]-3,5-dimethyl-isoxazole] here?
**A.** Its IC50 is less than 1 µM.

**Q.** Which IC50 does the source give for Cc1noc(C)c1-c1cnc2[nH]cc(C(O)c3c(F)cccc3Cl)c2c1 (stereo not drawn) [P-0021, (2-chloro-6-fluoro-phenyl)-[5-(3,5-dimethylisoxazol-4-yl)-1H-pyrrolo[2,3-b]pyridin-3-yl]methanol] here?
**A.** Its IC50 is less than 1 µM.

**Q.** Which IC50 does the source give for Cc1noc(C)c1-c1cnc2c(-c3cnn(C(F)F)c3)cn(C(C)c3ccccc3)c2c1 (stereo not drawn) [P-0177, 4-[3-[1-(difluoromethyl)pyrazol-4-yl]-1-(1-phenylethyl)pyrrolo[3,2-b]pyridin-6-yl]-3,5-dimethyl-isoxazole] here?
**A.** The IC50 was less than 1 µM.

**Q.** How did the IC50 turn out when COC(c1c(F)cccc1Cl)c1c[nH]c2ncc(-c3c(C)noc3C)cc12 (stereo not drawn) [P-0014, 4-[3[(2-chloro-6-fluoro-phenyl)-methoxy-methyl]-1H-pyrrolo[2,3-b]pyridin-5-yl]-3,5-dimethyl-isoxazole] was run?
**A.** Its IC50 is less than 1 µM.

**Q.** With Cc1noc(C)c1-c1cnc2ccn(S(=O)(=O)c3ccccc3)c2c1 [P-0038, 4-[1-(benzenesulfonyl)pyrrolo[3,2-b]pyridin-6-yl]-3,5-dimethyl-isoxazole] as the compound, how does the IC50 read?
**A.** Its IC50 is less than 1 µM.

**Q.** For Cc1noc(C)c1-c1cnc2c(-c3cnn(C)c3)cn(S(=O)(=O)C3CCCC3)c2c1 [P-0112, 4-[1-cyclopentyl-sulfonyl-3-(1-methyl-pyrazol-4-yl)pyrrolo[3,2-b]pyridin-6-yl]-3,5-dimethyl-isoxazole], which IC50 is on record?
**A.** Its IC50 is less than 1 µM.

**Q.** For Cc1noc(C)c1-c1cnc2c(-c3cnn(C)c3)cn(Cc3ccccc3Cl)c2c1 [P-0193, 4-[1-[(2-chlorophenyl)methyl]-3-(1-methylpyrazol-4-yl)pyrrolo[3,2-b]pyridin-6-yl]-3,5-dimethyl-isoxazole], which IC50 is on record?
**A.** Its IC50 is less than 1 µM.

**Q.** Which IC50 does the source give for Cc1noc(C)c1-c1cnc2c(-c3cnn(C)c3)cn(Cc3ccccc3OC(F)(F)F)c2c1 [P-0194, 3,5-dimethyl-4-[3-(1-methylpyrazol-4-yl)-1-[[2-(trifluoromethoxy)phenyl]methyl]pyrrolo[3,2-b]pyridin-6-yl]isoxazole] here?
**A.** The IC50 was less than 1 µM.

**Q.** Which IC50 does the source give for Cc1noc(C)c1-c1cnc2c(-c3cnn(C)c3)cn(Cc3cccnc3)c2c1 [P-0195, 3,5-dimethyl-4-[3-(1-methylpyrazol-4-yl)-1-(3-pyridylmethyl)pyrrolo[3,2-b]pyridin-6-yl]isoxazole] here?
**A.** Its IC50 is less than 1 µM.

**Q.** Cc1noc(C)c1-c1cnc2[nH]cc(C(O)c3cccc(OC(F)(F)F)c3)c2c1 (stereo not drawn) [P-0039, [5-(3,5-dimethylisoxazol-4-yl)-1H-pyrrolo[2,3-b]pyridin-3-yl]-[3-(trifluoromethoxy)phenyl]methanol] was tested. Which IC50 did it give?
**A.** Its IC50 is less than 1 µM.

**Q.** With COc1ncc(-c2cn(S(=O)(=O)c3ccccc3)c3cc(-c4c(C)noc4C)cnc23)cn1 [P-0104, 4-[1-(benzenesulfonyl)-3-(2-methoxypyrimidin-5-yl)pyrrolo[3,2-b]pyridin-6-yl]-3,5-dimethyl-isoxazole] as the compound, how does the IC50 read?
**A.** Its IC50 is less than 1 µM.

**Q.** How did the IC50 turn out when C=CCn1cc(-c2cn(S(=O)(=O)CCC(F)(F)F)c3cc(-c4c(C)noc4C)cnc23)cn1 [P-0129, 4-[3-(1-allylpyrazol-4-yl)-1-(3,3,3-trifluoro-propylsulfonyl)pyrrolo[3,2-b]pyridin-6-yl]-3,5-dimethyl-isoxazole] was run?
**A.** Its IC50 is less than 1 µM.

**Q.** Which IC50 does the source give for Cc1noc(C)c1-c1cnc2ccn(S(=O)(=O)c3ccccc3F)c2c1 [P-0060, 4-[1-(2-fluorophenyl)sulfonylpyrrolo[3,2-b]pyridin-6-yl]-3,5-dimethyl-isoxazole] here?
**A.** Its IC50 is less than 1 µM.

**Q.** Cc1noc(C)c1-c1cnc2c(-c3cnn(C)c3)cn(Cc3c(F)cccc3F)c2c1 [P-0173, 4-[1-[(2,6-difluorophenyl)methyl]-3-(1-methylpyrazol-4-yl)pyrrolo[3,2-b]pyridin-6-yl]-3,5-dimethyl-isoxazole] was tested. Which IC50 did it give?
**A.** The IC50 was less than 1 µM.

**Q.** With Cc1noc(C)c1-c1cnc2[nH]cc(Sc3cccc(F)c3)c2c1 [P-0141, 4-[3-(3-fluorophenyl)sulfanyl-1H-pyrrolo[2,3-b]pyridin-5-yl]-3,5-dimethyl-isoxazole] as the compound, how does the IC50 read?
**A.** The IC50 was less than 1 µM.

**Q.** For Cc1noc(C)c1-c1cnc2c(-c3cnn(C(F)F)c3)cn(Cc3ccccc3F)c2c1 [P-0176, 4-[3-[1-(difluoromethyl)pyrazol-4-yl]-1-[(2-fluorophenyl)methyl]pyrrolo[3,2-b]pyridin-6-yl]-3,5-dimethyl-isoxazole], which IC50 is on record?
**A.** The IC50 was less than 1 µM.

**Q.** With Cc1noc(C)c1-c1cnc2[nH]c(C)c(Cc3cccnc3)c2c1 [P-0005, 3,5-dimethyl-4-[2-methyl-3-(3-pyridylmethyl)-1H-pyrrolo[2,3-b]pyridin-5-yl]isoxazole] as the compound, how does the IC50 read?
**A.** Its IC50 is less than 1 µM.

**Q.** Cc1noc(C)c1-c1cnc2[nH]cc(C(=O)C3CCC(F)(F)CC3)c2c1 [P-0031, (4,4-difluorocyclohexyl)-[5-(3,5-dimethylisoxazol-4-yl)-1H-pyrrolo[2,3-b]pyridin-3-yl]methanone] was tested. Which IC50 did it give?
**A.** The IC50 was less than 1 µM.

**Q.** CCn1cc(-c2cn(S(=O)(=O)c3ccccc3F)c3cc(-c4c(C)noc4C)cnc23)cn1 [P-0125, 4-[3-(1-ethylpyrazol-4-yl)-1-(2-fluorophenyl)sulfonyl-pyrrolo[3,2-b]pyridin-6-yl]-3,5-dimethyl-isoxazole] was tested. Which IC50 did it give?
**A.** Its IC50 is less than 1 µM.

**Q.** For Cc1noc(C)c1-c1cnc2[nH]cc(Cc3cccc4c3OC(F)(F)O4)c2c1 [P-0048, 4-[3-[(2,2-difluoro-1,3-benzodioxol-4-yl)methyl]-1H-pyrrolo[2,3-b]pyridin-5-yl]-3,5-dimethyl-isoxazole], which IC50 is on record?
**A.** The IC50 was less than 1 µM.

**Q.** COCCn1cc(-c2cn(S(=O)(=O)c3ccccc3)c3cc(-c4c(C)noc4C)cnc23)cn1 [P-0147, 4-[1-(benzenesulfonyl)-3-[1-(2-methoxyethyl)pyrazol-4-yl]pyrrolo[3,2-b]pyridin-6-yl]-3,5-dimethyl-isoxazole] was tested. Which IC50 did it give?
**A.** Its IC50 is less than 1 µM.
